Assay: xn = mol fraction of the nth substance listed
Details: 101 kPa

CCCCCCCCCCCCCCCC[n+]1ccccc1.O=C([O-])C(O)c1ccccc1 + NCC(=O)NCC(=O)O + O
electrical conductivity [S/m]
Details | 293.15 K | 298.15 K | 303.15 K | 308.15 K | 313.15 K
x1 = 1.08e-06, x2 = 0 | 0.00061 | 0.00068 | 0.00076 | 0.00083 | 0.0009
x1 = 1.09e-06, x2 = 0.001799 | 0.00287 | 0.00346 | 0.00413 | 0.0049 | 0.0058
x1 = 1.27e-06, x2 = 0.0009002 | 0.00184 | 0.0022 | 0.0026 | 0.0031 | 0.0036
x1 = 1.98e-06, x2 = 0 | 0.001 | 0.0012 | 0.0013 | 0.0014 | 0.0016
x1 = 2.19e-06, x2 = 0.001799 | 0.00326 | 0.00391 | 0.0046 | 0.0054 | 0.0064
x1 = 2.36e-06, x2 = 0.0009002 | 0.00226 | 0.00268 | 0.0031 | 0.0036 | 0.0042
x1 = 2.88e-06, x2 = 0 | 0.00147 | 0.0016 | 0.0018 | 0.002 | 0.0022
x1 = 3.26e-06, x2 = 0.0009002 | 0.00264 | 0.0031 | 0.0036 | 0.0042 | 0.0048
x1 = 3.46e-06, x2 = 0.001799 | 0.00367 | 0.00438 | 0.0051 | 0.006 | 0.007
x1 = 3.96e-06, x2 = 0 | 0.0019 | 0.0022 | 0.0024 | 0.0026 | 0.0029
x1 = 4.17e-06, x2 = 0.0009002 | 0.00301 | 0.0035 | 0.004 | 0.0046 | 0.0053
x1 = 4.56e-06, x2 = 0.001799 | 0.00407 | 0.00482 | 0.0056 | 0.0066 | 0.0076
x1 = 4.69e-06, x2 = 0 | 0.0023 | 0.0026 | 0.0029 | 0.0031 | 0.0035
x1 = 5.44e-06, x2 = 0.0009002 | 0.00346 | 0.004 | 0.0046 | 0.0053 | 0.006
x1 = 5.47e-06, x2 = 0.001799 | 0.00441 | 0.00521 | 0.0061 | 0.007 | 0.0082
x1 = 5.95e-06, x2 = 0 | 0.00281 | 0.0032 | 0.0035 | 0.0038 | 0.0042
x1 = 6.89e-06, x2 = 0.0009002 | 0.00401 | 0.00464 | 0.0053 | 0.006 | 0.0069
x1 = 6.93e-06, x2 = 0.001799 | 0.00487 | 0.00571 | 0.0066 | 0.0077 | 0.0089
x1 = 7.21e-06, x2 = 0 | 0.00341 | 0.0038 | 0.0042 | 0.0046 | 0.0051
x1 = 8.34e-06, x2 = 0.0009002 | 0.00451 | 0.0052 | 0.0059 | 0.0068 | 0.0077
x1 = 8.38e-06, x2 = 0.001799 | 0.00536 | 0.00626 | 0.0072 | 0.0084 | 0.0097
x1 = 8.83e-06, x2 = 0 | 0.00406 | 0.0046 | 0.005 | 0.0055 | 0.006
x1 = 9.97e-06, x2 = 0.0009002 | 0.00504 | 0.00579 | 0.0066 | 0.0075 | 0.0085
x1 = 1.002e-05, x2 = 0.001799 | 0.00583 | 0.0068 | 0.0078 | 0.009 | 0.0104
x1 = 1.045e-05, x2 = 0 | 0.00469 | 0.0053 | 0.0058 | 0.0065 | 0.0071
x1 = 1.142e-05, x2 = 0.0009002 | 0.00547 | 0.00629 | 0.0071 | 0.0081 | 0.0092
x1 = 1.166e-05, x2 = 0.001799 | 0.0062 | 0.00723 | 0.0083 | 0.0096 | 0.011
x1 = 1.207e-05, x2 = 0 | 0.00516 | 0.0058 | 0.0064 | 0.0071 | 0.0079
x1 = 1.287e-05, x2 = 0.0009002 | 0.00582 | 0.00669 | 0.0076 | 0.0086 | 0.0098
x1 = 1.312e-05, x2 = 0.001799 | 0.0066 | 0.00763 | 0.0088 | 0.0101 | 0.0117
x1 = 1.351e-05, x2 = 0 | 0.00562 | 0.00631 | 0.007 | 0.0077 | 0.0085
x1 = 1.414e-05, x2 = 0.0009002 | 0.00617 | 0.00708 | 0.008 | 0.0091 | 0.0103
x1 = 1.476e-05, x2 = 0.001799 | 0.00697 | 0.0081 | 0.0093 | 0.0107 | 0.0122
x1 = 1.478e-05, x2 = 0 | 0.00603 | 0.0068 | 0.0075 | 0.0083 | 0.0092
x1 = 1.54e-05, x2 = 0.0009002 | 0.00651 | 0.0075 | 0.0084 | 0.0096 | 0.0108
x1 = 1.622e-05, x2 = 0 | 0.00644 | 0.0072 | 0.008 | 0.0089 | 0.0098
x1 = 1.622e-05, x2 = 0.001799 | 0.00735 | 0.0084 | 0.0097 | 0.0112 | 0.0128
x1 = 1.667e-05, x2 = 0.0009002 | 0.00687 | 0.0079 | 0.0089 | 0.0101 | 0.0114
x1 = 1.75e-05, x2 = 0.001799 | 0.00771 | 0.0088 | 0.0102 | 0.0117 | 0.0133
x1 = 1.766e-05, x2 = 0 | 0.00687 | 0.0077 | 0.0085 | 0.0094 | 0.0104

Reference: the CheMixHub ionic liquid set
